Tests used:
Format in all cases: in vivo
[1] = system: Alopecurus myosuroides (ALOMY); assay: Post-emergence biological efficacy, glasshouse pot test; settings: 312 h
Method: (§1) Seeds of Alopecurus myosuroides (ALOMY), Setaria faberi (SETFA), Echinochloa crus-galli (ECHCG), Solanum nigrum (SOLNI), Amaranthus retoflexus (AMARE) and Ipomea hederaceae (IPOHE) were sown in standard soil in pots. After cultivation for 8 days under controlled conditions in a glasshouse (at 24/16° C., day/night; 14 hours light; 65% humidity), the plants were sprayed with an aqueous spray solution derived from the formulation of the technical active ingredient in acetone/water (50:50) solution containing 0.5% Tween 20 (polyoxyethelyene sorbitan monolaurate, CAS RN 9005-64-5) to give a final dose of 1000 or 250 g/ha of test compound.
(§2) The test plants were then grown on under controlled conditions in a glasshouse (at 24/16° C., day/night; 14 hours light; 65% humidity) and watered twice daily. After 13 days the test was evaluated (100=total damage to plant; 0=no damage to plant).

[2] = system: Amaranthus retoflexus (AMARE); assay: as above; settings: Amaranthus retroflexus, 312 h
Method: as §1, §2

[3] = system: Echinochloa crus-galli (ECHCG); assay: as above; settings: 312 h
Method: as §1, §2

[4] = system: Setaria faberi (SETFA); assay: as above; settings: 312 h
Method: as §1, §2

[5] = system: Ipomea hederaceae (IPOHE); assay: as above; settings: Ipomoea hederacea, 312 h
Method: as §1, §2

[6] = system: Solanum nigrum (SOLNI); assay: as above; settings: 312 h
Method: as §1, §2

[7] = system: Alopecurus myosuroides (ALOMY); assay: Pre-emergence biological efficacy, glasshouse pot test; settings: 312 h
Method: as §1, with “one day” for “8 days”
(§3) The test plants were then grown under controlled conditions in the glasshouse (at 24/16° C., day/night; 14 hours light; 65% humidity) and watered twice daily. After 13 days the test was evaluated (100=total damage to plant; 0=no damage to plant).

[8] = system: Amaranthus retoflexus (AMARE); assay: as above; settings: Amaranthus retroflexus, 312 h; pre-emergence, 1,000 g/ha, evaluated after 13 days (100=total damage; 0=no damage); read-out: Percentage damage AMARE
Method: as §1, with “one day” for “8 days”
as §3

[9] = system: Echinochloa crus-galli (ECHCG); assay: as above; settings: 312 h
Method: as §1, with “one day” for “8 days”
as §3

[10] = system: Setaria faberi (SETFA); assay: as above; settings: 312 h
Method: as §1, with “one day” for “8 days”
as §3

[11] = system: Ipomea hederaceae (IPOHE); assay: as above; settings: Ipomoea hederacea, 312 h
Method: as §1, with “one day” for “8 days”
as §3

[12] = system: Solanum nigrum (SOLNI); assay: as above; settings: 312 h, pre-emergence, 1,000 g/ha, evaluated after 13 days (100=total damage; 0=no damage), read-out: Percentage damage SOLNI
Method: as §1, with “one day” for “8 days”
as §3

[13] = post-emergence, 1,000 g/ha, evaluated after 13 days (100=total damage; 0=no damage), read-out: Percentage damage caused to weed species, ALOMY
[14] = post-emergence, 1,000 g/ha, evaluated after 13 days (100=total damage; 0=no damage), read-out: Percentage damage caused to weed species, AMARE
[15] = post-emergence, 1,000 g/ha, evaluated after 13 days (100=total damage; 0=no damage), read-out: Percentage damage caused to weed species, ECHCG
[16] = post-emergence, 1,000 g/ha, evaluated after 13 days (100=total damage; 0=no damage), read-out: Percentage damage caused to weed species, SETFA
[17] = post-emergence, 1,000 g/ha, evaluated after 13 days (100=total damage; 0=no damage), read-out: Percentage damage caused to weed species, IPOHE
[18] = post-emergence, 1,000 g/ha, evaluated after 13 days (100=total damage; 0=no damage), read-out: Percentage damage caused to weed species, SOLNI
[19] = pre-emergence, 1,000 g/ha, evaluated after 13 days (100=total damage; 0=no damage), read-out: Percentage damage ALOMY
[20] = pre-emergence, 1,000 g/ha, evaluated after 13 days (100=total damage; 0=no damage), read-out: Percentage damage ECHCG
[21] = pre-emergence, 1,000 g/ha, evaluated after 13 days (100=total damage; 0=no damage), read-out: Percentage damage SETFA
[22] = pre-emergence, 1,000 g/ha, evaluated after 13 days (100=total damage; 0=no damage), read-out: Percentage damage IPOHE

Compound | pest or weed control at 1000 g/ha [1, 13] | pest or weed control at 1000 g/ha [2, 14] | pest or weed control at 1000 g/ha [3, 15] | pest or weed control at 1000 g/ha [4, 16] | pest or weed control at 1000 g/ha [5, 17] | pest or weed control at 1000 g/ha [6, 18] | pest or weed control at 1000 g/ha [7, 19] | pest or weed control at 1000 g/ha [8] | pest or weed control at 1000 g/ha [9, 20] | pest or weed control at 1000 g/ha [10, 21] | pest or weed control at 1000 g/ha [11, 22] | pest or weed control at 1000 g/ha [12] | further results
COC(=O)c1nc(C2CC2)nc(N[C@H]2CCCC[C@@H]2O)c1Cl (relative stereo) [4-36 (trans), 5-Chloro-2-cyclopropyl-4-(trans-2-hydroxycyclohexyl-amino)-6-methoxy-carbonylpyrimidine] | 20% | 80% | 10% | 20% | 40% | 70% | 10% | 80% | 20% | 20% | 60% | 70% | 
COC(=O)c1nc(C2CC2)nc(NC2(/C=C/c3ccccc3)CC2)c1Cl [4-19 (E), 5-Chloro-2-cyclopropyl-6-methoxycarbonyl-4-[1-(2-phenyl-ethenyl)-cyclo-propylamino]-pyrimidine] | 20% | 100% | 40% | 70% | 100% | 80% | 20% | 40% | 20% | 20% | 80% | 60% | 
COC(=O)c1nc(C2CC2)nc(NC2(/C=C\c3ccccc3)CC2)c1Cl [4-19 (Z), 5-Chloro-2-cyclopropyl-6-methoxycarbonyl-[(Z)-1-(2-phenylethenyl)-cyclopropylamino]-pyrimidine] | 10% | 100% | 30% | 60% | 100% | 90% | 20% | 90% | 20% | 0% | 90% | 40% | 
COC(=O)c1nc(C2CC2)nc(N[C@@H]2c3ccccc3C[C@@H]2O)c1Cl [4-37 (1R,2S), 5-Chloro-2-cyclopropyl-4-[(1R, 2S)-2-hydroxy-indan-1-ylamino]-6-methoxycarbonyl-pyrimidine] | 30% | 100% | 60% | 70% | 100% | 100% | 50% | 100% | 60% | 80% | 100% | 100% | 
COC(=O)c1nc(C2CC2)nc(N[C@H]2c3ccccc3C[C@H]2O)c1Cl [4-37 (1S,2R), 5-Chloro-2-cyclopropyl-4-[(1S, 2R)-2-hydroxy-indan-1-ylamino]-6-methoxycarbonyl-pyrimidine] | 50% | 100% | 60% | 60% | 50% | 100% | 30% | 100% | 40% | 60% | 80% | 90% | 
COC(=O)c1nc(C2CC2)nc(NCCC2=CCCCC2)c1Cl [Compound 4-215, 5-Chloro-4-[2-(cyclohex-1-enyl)ethylamino]-2-cyclopropyl-6-methoxycarbonyl-pyrimidine] | 20% |  | 30% | 50% | 80% | 100% | 10% | 100% | 20% | 20% | 90% | 90% | 
COC(=O)c1nc(C2CC2)nc(NCC(F)c2cccc(Br)c2)c1Cl (stereo not shown) [Compound 4-235, 4-[2-(3-Bromophenyl)-2-fluoro-ethylamino]-5-chloro-2-cyclopropyl-6-methoxycarbonyl-pyrimidine] | 0% | 100% | 30% | 20% | 70% | 60% | 0% |  | 0% | 0% | 0% |  | 
COC(=O)c1nc(-c2ccc(OC)c(F)c2)nc(NCc2ccco2)c1Cl [Compound 253-48, 5-Chloro-2-(3-fluoro-4-methoxyphenyl)-4-(furan-2-yl-methyl-amino)-6-methoxy-carbonylpyrimidine] |  |  |  |  |  |  |  |  |  |  |  |  | pest or weed control at 1000 g/ha ([1]; Rate 1,000 g/ha, post-emergence spray, evaluated after 13 days (100=total damage to plant; 0=no damage to plant), read-out: Percentage damage caused to weed species, post-emergence, ALOMY): 0%; pest or weed control at 1000 g/ha ([2]; Rate 1,000 g/ha, post-emergence spray, evaluated after 13 days (100=total damage to plant; 0=no damage to plant), read-out: Percentage damage caused to weed species, post-emergence, AMARE): 70%; pest or weed control at 1000 g/ha ([3]; Rate 1,000 g/ha, post-emergence spray, evaluated after 13 days (100=total damage to plant; 0=no damage to plant), read-out: Percentage damage caused to weed species, post-emergence, ECHCG): 0%; pest or weed control at 1000 g/ha ([4]; Rate 1,000 g/ha, post-emergence spray, evaluated after 13 days (100=total damage to plant; 0=no damage to plant), read-out: Percentage damage caused to weed species, post-emergence, SETFA): 0%; pest or weed control at 1000 g/ha ([5]; Rate 1,000 g/ha, post-emergence spray, evaluated after 13 days (100=total damage to plant; 0=no damage to plant), read-out: Percentage damage caused to weed species, post-emergence, IPOHE): 20%; pest or weed control at 1000 g/ha ([6]; Rate 1,000 g/ha, post-emergence spray, evaluated after 13 days (100=total damage to plant; 0=no damage to plant), read-out: Percentage damage caused to weed species, post-emergence, SOLNI): 40%; pest or weed control at 1000 g/ha ([7]; pre-emergence, rate 1,000 g/ha, evaluated after 13 days (100=total damage to plant; 0=no damage), read-out: Percentage damage caused to weed species, ALOMY): 0%; pest or weed control at 1000 g/ha ([9]; pre-emergence, rate 1,000 g/ha, evaluated after 13 days (100=total damage to plant; 0=no damage), read-out: Percentage damage caused to weed species, ECHCG): 0%; pest or weed control at 1000 g/ha ([10]; pre-emergence, rate 1,000 g/ha, evaluated after 13 days (100=total damage to plant; 0=no damage), read-out: Percentage damage caused to weed species, SETFA): 0%; pest or weed control at 1000 g/ha ([11]; pre-emergence, rate 1,000 g/ha, evaluated after 13 days (100=total damage to plant; 0=no damage), read-out: Percentage damage caused to weed species, IPOHE): 0%

— US20110086759A1, “CHEMICAL COMPOUNDS” (SYNGENTA CROP PROTECTION, INC., priority 2007, published 2011)
